Assay results published in the supplement of paper PMC10307832.

Tests used:
Assay in all cases: relative viability (nuclei count vs DMSO), 5 days (fraction); higher = more cells survive
YM155 + Olaparib = compound: COCC[n+]1c2c(n(Cc3cnccn3)c1C)C(=O)c1ccccc1C2=O [YM155] + O=C(c1cc(Cc2n[nH]c(=O)c3ccccc23)ccc1F)N1CCN(C(=O)C2CC2)CC1 [Olaparib] (partner 8 µM)
How it was run: (§1)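 Five library-drug doses in √10 steps were combined with a fixed anchor-drug dose, or a single drug was given alone, by pin tool to lung cancer cell lines in 1536-well plates the day after seeding. Nuclei were stained and counted after 5 days. Relative viability is the nuclei count in treated wells over that in vehicle wells, taken as the median of duplicate plates.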

YM155 + Pemetrexed = compound: COCC[n+]1c2c(n(Cc3cnccn3)c1C)C(=O)c1ccccc1C2=O [YM155] + Nc1nc2[nH]cc(CCc3ccc(C(=O)N[C@@H](CCC(=O)O)C(=O)O)cc3)c2c(=O)[nH]1 [Pemetrexed] (partner 0.2 µM)
How it was run: as §1

Quizartinib + Linsitinib = compound: CC(C)(C)c1cc(NC(=O)Nc2ccc(-c3cn4c(n3)sc3cc(OCCN5CCOCC5)ccc34)cc2)no1 [Quizartinib] + C[C@]1(O)C[C@@H](c2nc(-c3ccc4ccc(-c5ccccc5)nc4c3)c3c(N)nccn32)C1 [Linsitinib] (partner 1 µM)
How it was run: as §1

YM155 + Crizotinib = compound: COCC[n+]1c2c(n(Cc3cnccn3)c1C)C(=O)c1ccccc1C2=O [YM155] + C[C@@H](Oc1cc(-c2cnn(C3CCNCC3)c2)cnc1N)c1c(Cl)ccc(F)c1Cl [Crizotinib] (partner 1 µM)
How it was run: as §1

Cell Line	relative viability (YM155 + Olaparib; first compound 0.002 µM)	relative viability (YM155 + Olaparib; first compound 0.006325 µM)	relative viability (YM155 + Olaparib; first compound 0.02 µM)	relative viability (YM155 + Olaparib; first compound 0.06325 µM)	relative viability (YM155 + Pemetrexed; first compound 0.002 µM)	relative viability (YM155 + Pemetrexed; first compound 0.006325 µM)	relative viability (YM155 + Pemetrexed; first compound 0.02 µM)	relative viability (YM155 + Pemetrexed; first compound 0.06325 µM)	relative viability (Quizartinib + Linsitinib; first compound 0.001 µM)	relative viability (Quizartinib + Linsitinib; first compound 0.003162 µM)	relative viability (Quizartinib + Linsitinib; first compound 0.01 µM)	relative viability (Quizartinib + Linsitinib; first compound 0.1 µM)	relative viability (YM155 + Crizotinib; first compound 0.002 µM)	relative viability (YM155 + Crizotinib; first compound 0.006325 µM)	relative viability (YM155 + Crizotinib; first compound 0.02 µM)	relative viability (YM155 + Crizotinib; first compound 0.06325 µM)	relative viability (Quizartinib + Linsitinib; first compound 0.03162 µM)
NCI-H358	0.574	0.625	0.529	0.156	0.181	0.172	0.167	0.127	0.592	0.688	0.768	0.698	0.538	0.594	0.592	0.214	–
NCI-H441	0.597	0.524	0.518	0.299	0.249	0.267	0.293	0.198	0.357	0.645	0.607	0.479	0.676	0.623	0.694	0.509	0.51
NCI-H460	0.411	0.444	0.417	0.384	0.072	0.0667	0.0671	0.0598	0.583	0.572	0.782	0.708	1.01	0.803	0.936	0.84	–
NCI-H520	0.362	0.441	0.379	0.294	0.534	0.74	0.685	0.694	0.862	0.992	0.888	0.859	0.755	0.725	0.835	0.66	0.934
NCI-H596	0.719	0.669	0.697	0.622	0.429	0.485	0.532	0.499	1.06	0.985	1.06	1.03	–	0.965	0.997	0.974	1.12
NCI-H647	0.506	0.64	0.516	0.295	0.189	0.171	0.173	0.164	1.17	1.07	1.26	1.45	1.08	1.31	1.12	0.755	1.18
NCI-H650	0.429	0.345	0.409	0.377	0.834	0.744	0.966	1.08	0.807	0.787	0.798	1.15	0.835	0.655	0.747	0.52	0.694
NCI-H661	0.727	0.686	0.739	0.41	0.935	0.961	0.919	0.485	0.564	0.544	0.433	0.737	1.01	0.942	1.05	0.798	0.58
NCI-H838	0.711	0.787	0.761	0.416	0.276	0.232	0.225	0.216	0.919	0.912	0.991	0.576	0.825	0.909	0.911	0.297	0.963
NCI-H1355	0.751	0.731	0.8	0.725	0.979	1.07	1.04	0.997	0.804	0.817	0.827	0.842	0.988	1.11	1.03	1.01	0.799
NCI-H1437	0.618	0.596	0.599	0.387	0.297	0.305	0.33	0.234	0.954	0.897	1.01	0.706	0.878	0.9	0.902	0.681	0.898
NCI-H1651	0.189	0.19	0.206	0.173	0.598	0.599	0.6	0.615	0.858	0.946	1.06	0.93	0.956	0.806	0.876	0.894	0.727
NCI-H1666	0.754	0.741	0.769	0.679	0.837	0.881	0.854	0.868	0.771	0.753	0.868	0.865	1.05	–	1.01	0.879	0.631
NCI-H1734	0.53	0.607	0.656	0.63	0.375	0.404	0.399	0.452	0.752	0.871	0.901	0.842	0.646	0.662	0.766	0.675	0.855
NCI-H1755	0.848	0.853	0.855	0.913	0.647	0.42	0.359	0.434	0.611	0.997	0.963	0.99	0.882	0.833	0.973	0.859	1
NCI-H1792	0.382	0.253	0.502	0.454	0.713	0.762	0.805	0.971	0.334	0.496	0.602	0.587	1	1.05	0.994	0.984	0.466
NCI-H1915	0.26	0.259	0.278	0.254	0.481	0.494	0.439	0.458	0.761	1.03	1.11	1.15	0.898	0.916	0.922	0.849	1.08
NCI-H1944	0.401	0.364	0.404	0.406	0.74	0.559	0.587	0.641	0.865	1.16	1.12	1.24	1.07	0.916	1.2	1.27	1.39
